# In patent US12384765B2, “Catecholamine prodrugs for use in the treatment of Parkinson's Disease” (H. Lundbeck A/S, priority 2019, dated 2025):
# “Also recorded” adds a separate entry of the source.
# Key:
# [1] = Liu et al., Bioorganic Med. Chem. (2008); cited from earlier work
# [2] = WO 2010/097092; cited from earlier work
# [3] = Conversion of compounds in human plasma; assay type: in vitro ADME
# Description: Frozen human plasma was thawed and then centrifuged at 3200×g for 5 min to remove debris. The pH value of the supernatant was then measured and adjusted to 7.4±0.1 by adding 1% phosphoric acid or 1 N sodium hydroxide. 2 μL of dosing solution (50 μM for test compounds and 100 μM for positive control (propantheline bromide)) was mixed with 98 μL of blank plasma to achieve 1 μM test compound and 2 μM positive control of final concentration. The mixture was incubated, and samples were withdrawn from the incubations at the pre-determined time points of 0, 0.5, 1, 2, 4 and 6 hr (in duplicate) at 37° C. in water bath. At each corresponding time point 10 μL inhibitor and 20 μL ascorbic acid and 2 μL formic acid (20%) are added, and then added 400 μL of “stop solution” (200 ng/mL tolbutamide plus 200 ng/mL labetalol in 50% ACN/MeOH) to precipitate protein. The substance was mixed thoroughly and thereafter Centrifugated at 4,000 rpm for 20 minutes. Then an aliquot of supernatant (50 μL) was transferred from each well to a sample plate and mixed with 100 μL ultrapure water. The plate was shaked at 800 rpm for about 10 minutes before submitting to LC-MS/MS analysis.
# (§1) Mass spectrometer (LC-MS/MS) Shimadzu LC 20-AD Shimadzu UHPLC API 4000. Analytical column ACQUITY UPLC® BEH Phenyl 1.7 μm 2.1×50 mm. Mobile phase A: 0.1% Formic Acid in Water. Mobile phase B: 0.1% Formic Acid in Acetonitrile. […] Flow rate 0.7 mL/min.
# [4] = Liu et al.; cited from earlier work
# human 5-HT2B receptor [5] = target: T1, human 5-HT2B receptor (Homo sapiens (Human), UniProt P41595); test: 5-HT2B agonist activity assay (IP1 production, HTRF); assay type: cell-based
# T1 sequence (P41595 whole entry): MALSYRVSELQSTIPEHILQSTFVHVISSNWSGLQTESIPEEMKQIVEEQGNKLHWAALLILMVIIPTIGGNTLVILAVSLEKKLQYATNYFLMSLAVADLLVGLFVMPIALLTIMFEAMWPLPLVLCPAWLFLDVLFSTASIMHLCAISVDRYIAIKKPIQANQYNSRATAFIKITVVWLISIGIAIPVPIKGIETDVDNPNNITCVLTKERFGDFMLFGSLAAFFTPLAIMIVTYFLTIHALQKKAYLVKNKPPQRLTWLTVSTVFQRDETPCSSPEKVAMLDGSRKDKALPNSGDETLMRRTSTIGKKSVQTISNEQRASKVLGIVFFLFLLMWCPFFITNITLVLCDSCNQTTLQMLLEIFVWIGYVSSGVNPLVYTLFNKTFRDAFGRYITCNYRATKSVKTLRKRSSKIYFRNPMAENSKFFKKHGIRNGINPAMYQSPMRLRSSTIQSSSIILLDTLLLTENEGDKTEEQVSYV
# Description: Evaluation of the agonist activity of compounds (I), (Ia), (Ib), (Ic), (Ia-iab), compound (2), compound (9), compound (15), compound (27), A2, A3, and A7 at the human 5-HT2B receptor was performed by Eurofins/Cerep (France) measuring the compound effects on inositol monophosphate (IP1) production using the HTRF detection method. Briefly, the human 5-HT2B receptor was expressed in transfected CHO cells. The cells were suspended in a buffer containing 10 mM Hepes/NaOH (pH 7.4), 4.2 mM KCl, 146 mM NaCl, 1 mM CaCl2, 0.5 mM MgCl2, 5.5 mM glucose and 50 mM LiCl, then distributed in microplates at a density of 4100 cells/well and incubated for 30 minutes at 37° C. in the presence of buffer (basal control), test compound or reference agonist. For stimulated control measurement, separate assay wells contained 1 μM 5-HT. Following incubation, the cells were lysed and the fluorescence acceptor (fluorophen D2-labeled IP1) and fluorescence donor (anti-IP1 antibody labeled with europium cryptate) were added. After 60 minutes at room temperature, the fluorescence transfer was measured at lambda(Ex) 337 nm and lambda(Em) 620 and 665 nm using a microplate reader (Rubystar, BMG). The IP1 concentration was determined by dividing the signal measured at 665 nm by that measured at 620 nm (ratio). The results were expressed as a percent of the control response to 1 μM 5-HT. The standard reference agonist was 5-HT, which was tested in each experiment at several concentrations to generate a concentration-response curve from which its EC50 value is calculated as described above for dopamine functional assays.
# [6] = PK experiments in rats, plasma compound (I) after oral dosing; assay type: in vivo, Han Wistar rats; conditions: for plasma concentrations of compound (I) after oral dosing (in words): oral dosing to Wistar rats
# Description: Plasma was placed on water-ice following collection. Final storage at approximately −70° C.
# Mobile phase B: Acetonitrile. […] Flow rate 0.5 mL/min.
# The rats had unrestricted access to the diet.
# Mobile phase B: Acetonitrile+0.2% formic acid. […] Flow rate 0.3 mL/min.
# The rats received a standard laboratory diet Teklad 2014C. The rats had unrestricted access to the diet.
# human hepatocytes [7] = conditions: WO 2010/097092; cited from earlier work
# rat hepatocytes = conditions: WO 2010/097092; cited from earlier work
# male CD rats = test: Rat locomotor activity (hyperactivity) assay, open field; assay type: in vivo; conditions: for end of locomotor effect post administration: recording until 415-minute time point
# Description: In total, 206 male CD rats (Charles River, Germany) weighing 200-250 grams (165-190 grams upon arrival) were used in the study. Animals were housed at a standard temperature (22±1° C.) and in a light-controlled environment (lights on from 7 am to 8 pm) with ad libitum access to food and water. The experiment described below was performed in accordance with the standard operating procedures of Charles River Discovery Research Services Finland Ltd. and in accordance with the national Animal Experiment Board of Finland (Elainkoelautakunta, ELLA) authority on animal testing.
# The test device is a square Plexiglass-arena (measuring 40×40×40 cm), in which the movement paths of the rats are recorded by an activity monitor (Med. Associates Inc.). Before the test period is initiated, rats are habituated to their test cage for 60 minutes. Upon completion of habituation, animals were treated with either compound or vehicle and placed back into the open field apparatus. The main test parameter measured is ambulatory distance (recorded in 5 minute segments). Overall time of measurement after receiving initial treatment was 360 minutes. Total follow up period in the study was 420 minutes, including 60 minutes of habituation.
# Blood samples were taken and processed and analyzed as described under PK experiments in rats in Example 3.
# [8] = In vitro dopaminergic activity (data not shown)
# human hepatocytes [9] = test: Conversion of compounds in human hepatocytes; assay type: in vitro ADME; conditions: 1 μM compound, 37° C.; nd: not detected
# Description: Incubations were conducted in 96-well plates at 1 μM compound concentration in duplicate. The hepatocyte cell concentration was 0.5×10^6 cells/mL used for final incubation at 37° C. in an incubator of 5% CO2 95% relative humidity. The medium control samples were included at 0 and 60 minutes in the absence of cells. The total organic concentration was 1% (DMSO 0.1%) in the final incubation. The controls, (7-ethoxycoumarin and 7-hydroxycoumarin) was incubated parallel at 3 μM. 2 μL of dosing solution (50 μM for test compounds and 100 μM for positive control) was mixed with 98 μL of 100 mM PBS to achieve 1 μM test compound and 2 μM positive control of final concentration. The mixture was incubated, and samples were withdrawn from the incubations at pre-determined time points of 0, 0.5, 1, 2, 4 and 6 hr (in duplicate) at 37° C. in water bath. To each sample, 10 μL inhibitor and 20 μL ascorbic acid and 2 μL formic acid (20%) were added followed by 400 μL of stop solution (200 ng/mL tolbutamide plus 200 ng/mL labetalol in 50% ACN/MeOH). The substance was mixed thoroughly and thereafter centrifuged at 4,000 rpm for 20 minutes. An aliquot of supernatant (50 μL) from each well were transferred to a sample plate and mixed with 100 μL ultrapure water. The plate was shaked at 800 rpm for about 10 minutes before submitting to LC-MS/MS analysis.
# as §1
# human 5-HT2B receptor [10] = target: T1, human 5-HT2B receptor; test: 5-HT2B binding assay; conditions: [125I](±)DOI, read-out: 5-HT2B binding affinity (% inhibition of control, specific binding)
# Description: Evaluation of the affinity of said compounds for the human 5-HT2B receptor was determined in a radioligand binding assay at Eurofins/Cerep (France). Membrane homogenates prepared from CHO cells expressing the human 5HT2B receptor were incubated for 60 min at room temperature with 0.2 nM [125I](±)DOI (1-(4-iodo-2,5-dimethoxyphenyl)propan-2-amine) in the absence or presence of the test compound in a buffer containing 50 mM Tris-HCl (pH 7.4), 5 mM MgCl2, 10 μM pargyline and 0.1% ascorbic acid. Nonspecific binding is determined in the presence of 1 μM (±)DOI. Following incubation, the samples were filtered rapidly under vacuum through glass fiber filters (GF/B, Packard) presoaked with 0.3% polyethyleneimine (PEI) and rinsed several times with ice-cold 50 mM Tris-HCl using a 96-sample cell harvester (Unifilter, Packard). The filters were dried and counted for radioactivity in a scintillation counter (Topcount, Packard) using a scintillation cocktail (Microscint 0, Packard). The results are expressed as a percent inhibition of the control radioligand specific binding. The standard reference compound was (±)DOI, which was tested in each experiment at several concentrations to obtain a competition curve from which its IC50 is calculated.
# [11] = intravenous (IV), PD patients; cited from earlier work
# [12] = in man after oral dosing; cited from earlier work
# [13] = (Id-ia) 10 to 300 μg/kg p.o., apomorphine 3 mg/kg s.c., pramipexole 0.3 mg/kg s.c.
# [14] = (Id-ia) 10 to 300 μg/kg p.o., apomorphine 3 mg/kg s.c.
structure (smiles),measurement,setting,value
"CCCN1CCC[C@@H]2Cc3c(ccc(O)c3O)C[C@H]21 [(I), (4aR,10aR)-1-Propyl-1,2,3,4,4a,5,10,10a-octahydro-benzo[g]quinoline-6,7-diol]",oral bioavailability (in words),[1],low oral bioavailability
same,in vivo pharmacology in animal models relevant for Parkinson's Disease,[2],effective
same,half-life in the plasma assay,[3]; human plasma,short half-life
"CCCN1CCC[C@@H]2CC3=C(CCCC3=O)C[C@H]21 [(Ia), reference compound]",in vivo pharmacology in animal models relevant for Parkinson's Disease,[2],effective
same,conversion to compound (I) in rats,[4],converted to the active compound (I)
same,EC50,"human 5-HT2B receptor [5]; IP1 production, transfected CHO cells",> 6 µM
same,activity at 30 µM,"human 5-HT2B receptor [5]; read-out: 5-HT2B agonist activity, percent of control response",58%
same,plasma concentrations of compound (I) after oral dosing (in words),[6],early and high peak plasma concentrations
"CCCN1CCC[C@@H]2Cc3c(ccc4c3OCO4)C[C@H]21 [(Ib), (6aR,10aR)-7-propyl-6,6a,7,8,9,10,10a,11-octahydro-[1,3]dioxolo[4′,5′:5,6]benzo[1,2-g]quinoline]",in vivo pharmacology in animal models relevant for Parkinson's Disease,[2],effective
same,conversion to compound (I) in human hepatocytes,human hepatocytes [7],demonstrated
same,5-HT2B receptor agonism (in words),human 5-HT2B receptor [5],agonist
same,conversion to compound (I) in rat hepatocytes,rat hepatocytes,demonstrated
same,plasma concentrations of compound (I) after oral dosing (in words),[6],early and high peak plasma concentrations
"CCCN1CCC[C@@H]2Cc3c(ccc(O)c3O[C@@H]3O[C@H](C(=O)O)[C@@H](O)[C@H](O)[C@H]3O)C[C@H]21 [(Id-ia), (2S,3S,4S,5R,6S)-3,4,5-trihydroxy-6-(((4aR,10aR)-7-hydroxy-1-propyl-1,2,3,4,4a,5,10,10a-octahydrobenzo[g]quinolin-6-yl)oxy)tetrahydro-2H-pyran-2-carboxylic acid]",effect on locomotor activity,male CD rats; [13],dopaminergic effect; also recorded: increases locomotor activity
same,start of locomotor effect post-administration,male CD rats; [13],~2 h
same,end of locomotor effect post administration,male CD rats; [14],lasting until the end of recording
same,total distance travelled,"male CD rats; relative to vehicle, FIG. 4",significantly increased activity
same,in vitro dopaminergic activity,[8],no in vitro dopaminergic activity
same,"Observed metabolite, In vivo PK study after oral dosing (rats)",[6],Compound (I)
"CCCN1CCC[C@@H]2Cc3c(ccc(O[C@@H]4O[C@H](C(=O)O)[C@@H](O)[C@H](O)[C@H]4O)c3O)C[C@H]21 [(Id-ib), (2S,3S,4S,5R,6S)-3,4,5-tri hydroxy-6-(((4aR,10aR)-6-hydroxy-1-propyl-1,2,3,4,4a,5,10,10a-octahydrobenzo[g]quinolin-7-yl)oxy)tetrahydro-2H-pyran-2-carboxylic acid]","Observed metabolite, Incubation in human hepatocytes",human hepatocytes [9],Compound (I)
same,"Observed metabolite, Incubation in human plasma","[3]; 1 μM test compound, 37° C., 0-6 hr, nd: not detected",Compound (I)
same,inhibition at 10 µM,human 5-HT2B receptor [10],-39%
same,"Observed metabolite, In vivo PK study after oral dosing (rats)",[6],Compound (I)
"CCCc1cc2c(s1)CN[C@@H]1CCc3cc(OC(C)=O)c(OC(C)=O)cc3[C@@H]21 [Adrogolide, adrogolide]",antiparkinson efficacy,[11],comparable to that of L-DOPA
same,oral bioavailability,[12],~4%
"CN1CCc2cccc3c2[C@H]1Cc1ccc(O)c(O)c1-3 [apomorphine, reference compound]",end of locomotor effect post administration,male CD rats; [14],1.5 h
